Among the data in US12030904B2 (priority 2020, dated 2024) are CC50 and EC50 values, retold here.

Data set [1] in a line: MT4 cytotoxicity (CC50). The settings on record: human, MT4 cells.
The nature of data set [2]: A549 cytotoxicity analysis (CellTiter-Glo). Type of data set: cell-based. Conditions: human, A549 cells. The procedure: The cytotoxicity of compounds was determined in A549 cells in the following manner. Compounds (40 nL) were spotted onto 384-well Grenier plates prior to seeding 5000 A549 cells/well in a volume of 40 μL culture medium. The plates were incubated at 37° C. for 48 hours with 5% CO2. On day 2, 40 μL of CellTiter-Glo (Promega) was added and mixed 5 times. Plates were read for luminescence on an Envision (PerkinElmer) and the CC50 (compound concentration for reducing 50% of luminescence signal as a measure of cell viability) were calculated using a nonlinear regression model (four parameters). Two experiments were performed with technical duplicates.

The subject of data set [3] is Recombinant Respiratory Syncytial virus strain A2 containing the firefly luciferase reporter (RSV-Fluc). As to the kind of experiment: microbe, parasite or virus in culture. In kind it is cell-based. Conditions: human respiratory syncytial virus, NHBE.
Data set [4] deals with SARS-CoV-2. In words: microbe, parasite or virus in culture. Type of data set: cell-based. Conditions: Severe acute respiratory syndrome coronavirus 2, 48 h; read-out: SARS-CoV-2 EC50.
Where [5] appears, read: 72 h, read-out: RSV-Fluc EC50 (NHBE), NHBE cells, three days, Table 1.

Read-outs that look alike come from different tables or passages of the source.

One may read the CC50 as the concentration at which the toxic effect on the cells reaches its halfway point. The low end stands for harm at low concentration, the high end for better tolerance by the cells. One may read the EC50 as the concentration needed to bring the measured effect to its halfway point. In data set [1] (MT4 CC50, Table 1a), `CCCCCCCCCCCCCCCCCCOC[C@H](COP(=O)(O)OC[C@H]1O[C@@](C#N)(c2ccc3c(N)ncnn23)[C@H](O)[C@@H]1O)OCc1ccccc1` [Example 1, ((2R,3S,4R,5R)-5-(4-aminopyrrolo[2,1-f][1,2,4]triazin-7-yl)-5-cyano-3,4-dihydroxytetrahydrofuran-2-yl)methyl ((R)-2-(benzyloxy)-3-(octadecyloxy)propyl) hydrogen phosphate] came in with a CC50 of 3960 nM. In data set [2] (48 hours, Table 1), this molecule came in with a CC50 at 48 h of 20000 nM. Further, the results for the EC50 in data set [3] (setting [5]) and in data set [4] were 90 nM and 940 nM, respectively.

Take `CCCCCCCCCCCCCCCCCCOC[C@H](COP(=O)(O)OC[C@H]1O[C@@](C#N)(c2ccc3c(N)ncnn23)[C@H](O)[C@@H]1O)OCc1ccc(-c2ccccc2)cc1` [Example 2, (R)-2-([1,1′-biphenyl]-4-ylmethoxy)-3-(octadecyloxy)propyl (((2R,3S,4R,5R)-5-(4-aminopyrrolo[2,1-f][1,2,4]triazin-7-yl)-5-cyano-3,4-dihydroxytetrahydrofuran-2-yl)methyl) hydrogen phosphate]: in data set [1] (MT4 CC50, Table 1a), the 50% cytotoxic concentration (CC50) was 14700 nM. For the same molecule, in data set [2] (48 hours, Table 1), the cytotoxic concentration (CC50) at 48 h was over 50000 nM. The results for the EC50 in data set [3] (setting [5]) and in data set [4] were 350 nM and 430 nM, respectively.

In data set [1] (MT4 CC50, Table 1a), `CCCCCCCCCCCCCCCCCCOC[C@H](COP(=O)(O)OC[C@H]1O[C@@](C#N)(c2ccc3c(N)ncnn23)[C@H](O)[C@@H]1O)OCC1CCCCC1` [Example 3, ((2R,3S,4R,5R)-5-(4-aminopyrrolo[2,1-f][1,2,4]triazin-7-yl)-5-cyano-3,4-dihydroxytetrahydrofuran-2-yl)methyl ((R)-2-(cyclohexylmethoxy)-3-(octadecyloxy)propyl) hydrogen phosphate] returned a half-maximal cytotoxic concentration (CC50) of 14000 nM. Also, the cytotoxic concentration (CC50) at 48 h in data set [2] (48 hours, Table 1) was 19000 nM. Also, the results for the EC50 in data set [3] (setting [5]) and in data set [4] were 120 nM and 340 nM, respectively.

As to `CCCCCCCCCCCCCCCCCCOC[C@H](COP(=O)(O)OC[C@H]1O[C@@](C#N)(c2ccc3c(N)ncnn23)[C@H](O)[C@@H]1O)OCc1ccc2ccccc2c1` [Example 4, ((2R,3S,4R,5R)-5-(4-aminopyrrolo[2,1-f][1,2,4]triazin-7-yl)-5-cyano-3,4-dihydroxytetrahydrofuran-2-yl)methyl ((R)-2-(naphthalen-2-ylmethoxy)-3-(octadecyloxy)propyl) hydrogen phosphate], half-maximal cytotoxicity in data set [1] (MT4 CC50, Table 1a) (CC50) was put at 4170 nM. In data set [2] (48 hours, Table 1), this molecule displayed a CC50 at 48 h of 17000 nM. Further, the EC50 in data set [3] (setting [5]) is 60 nM; in data set [4], 340 nM.

Turning to `CCCCCCCCCCCCCCCCOC[C@H](COP(=O)(O)OC[C@H]1O[C@@](C#N)(c2ccc3c(N)ncnn23)[C@H](O)[C@@H]1O)OCc1ccccc1` [Example 5, ((2R,3S,4R,5R)-5-(4-aminopyrrolo[2,1-f][1,2,4]triazin-7-yl)-5-cyano-3,4-dihydroxytetrahydrofuran-2-yl)methyl ((R)-2-(benzyloxy)-3-(hexadecyloxy)propyl) hydrogen phosphate], the cytotoxic concentration (CC50) in data set [1] (MT4 CC50, Table 1a) turned out to be 6290 nM. In data set [2] (48 hours, Table 1), this molecule displayed a CC50 at 48 h of 19000 nM. In addition, the EC50 in data set [3] (setting [5]) came to 50 nM; in data set [4], 480 nM.

Turning to `CCCCCCCCCCCCCCCCCCCOC[C@H](COP(=O)(O)OC[C@H]1O[C@@](C#N)(c2ccc3c(N)ncnn23)[C@H](O)[C@@H]1O)OCc1ccccc1` [Example 7, ((2R,3S,4R,5R)-5-(4-aminopyrrolo[2,1-f][1,2,4]triazin-7-yl)-5-cyano-3,4-dihydroxytetrahydrofuran-2-yl)methyl ((R)-2-(benzyloxy)-3-(nonadecyloxy)propyl) hydrogen phosphate], in data set [1] (MT4 CC50, Table 1a), the CC50 is 13900 nM. Besides, in data set [2] (48 hours, Table 1), the CC50 at 48 h is over 50000 nM. In addition, the EC50 in data set [3] (setting [5]) was 80 nM; in data set [4] it was 370 nM.

Turning to `CCCCCCCCCCCCCCCCCCCCOC[C@H](COP(=O)(O)OC[C@H]1O[C@@](C#N)(c2ccc3c(N)ncnn23)[C@H](O)[C@@H]1O)OCc1ccccc1` [Example 8, ((2R,3S,4R,5R)-5-(4-aminopyrrolo[2,1-f][1,2,4]triazin-7-yl)-5-cyano-3,4-dihydroxytetrahydrofuran-2-yl)methyl ((R)-2-(benzyloxy)-3-(icosyloxy)propyl) hydrogen phosphate], the CC50 in data set [1] (MT4 CC50, Table 1a) came out at 33400 nM. Further, in data set [2] (48 hours, Table 1), the CC50 at 48 h worked out at 23000 nM. For the same molecule, the half-maximal effective concentration (EC50) in data set [3] (setting [5]) came out at 110 nM; in data set [4], 800 nM.

In data set [1] (MT4 CC50, Table 1a), `CCCCCCCCCCCCCCCCCCOC[C@H](COP(=O)(O)OC[C@H]1O[C@@](C#N)(c2ccc3c(N)ncnn23)[C@H](O)[C@@H]1O)OCc1ccc(C#N)cc1` [Example 9, ((2R,3S,4R,5R)-5-(4-aminopyrrolo[2,1-f][1,2,4]triazin-7-yl)-5-cyano-3,4-dihydroxytetrahydrofuran-2-yl)methyl ((R)-2-((4-cyanobenzyl)oxy)-3-(octadecyloxy)propyl) hydrogen phosphate] registered a 50% cytotoxic concentration (CC50) of 1430 nM. Also, the midpoint of cytotoxicity in data set [2] (48 hours, Table 1), the CC50 at 48 h, lay at 30000 nM. For the same molecule, the values for the concentration giving a half-maximal response (EC50) in data set [3] (setting [5]) and in data set [4] were 50 nM and 270 nM, respectively.

With `CCCCCCCCCCCCCCCCCCOC[C@H](COP(=O)(O)OC[C@H]1O[C@@](C#N)(c2ccc3c(N)ncnn23)[C@H](O)[C@@H]1O)OCc1ccc(OC)cc1` [Example 10, ((2R,3S,4R,5R)-5-(4-aminopyrrolo[2,1-f][1,2,4]triazin-7-yl)-5-cyano-3,4-dihydroxytetrahydrofuran-2-yl)methyl ((R)-2-((4-methoxybenzyl)oxy)-3-(octadecyloxy)propyl) hydrogen phosphate], the CC50 in data set [1] (MT4 CC50, Table 1a) was determined as 3430 nM. The midpoint of cytotoxicity in data set [2] (48 hours, Table 1), the CC50 at 48 h, lay at 20000 nM. The results for the 50% effective concentration (EC50) in data set [3] (setting [5]) and in data set [4] were 60 nM and 300 nM, respectively.

In data set [1] (MT4 CC50, Table 1a), `CCCCCCCCCCCCCCCCCCOC[C@H](COP(=O)(O)OC[C@H]1O[C@@](C#N)(c2ccc3c(N)ncnn23)[C@H](O)[C@@H]1O)OCc1ccc(C(F)(F)F)cc1` [Example 11, ((2R,3S,4R,5R)-5-(4-aminopyrrolo[2,1-f][1,2,4]triazin-7-yl)-5-cyano-3,4-dihydroxytetrahydrofuran-2-yl)methyl ((R)-3-(octadecyloxy)-2-((4-(trifluoromethyl)benzyl)oxy)propyl) hydrogen phosphate] yielded a CC50 of 14500 nM. Moreover, the cytotoxic concentration (CC50) at 48 h in data set [2] (48 hours, Table 1) is over 50000 nM. The EC50 stood at 60 nM in data set [3] (setting [5]) and 350 nM in data set [4].

`CCCCCCCCCCCCCCCCCCOC[C@H](COP(=O)(O)OC[C@H]1O[C@@](C#N)(c2ccc3c(N)ncnn23)[C@H](O)[C@@H]1OC(=O)C(C)C)OCc1ccccc1` [Example 12, (2R,3S,4R,5R)-5-(4-aminopyrrolo[2,1-f][1,2,4]triazin-7-yl)-2-(((((R)-2-(benzyloxy)-3-(octadecyloxy)propoxy)(hydroxy)phosphoryl)oxy)methyl)-5-cyano-4-hydroxytetrahydrofuran-3-yl isobutyrate] gave a CC50 in data set [1] (MT4 CC50, Table 1a) of 50000 nM. Besides, in data set [2] (48 hours, Table 1), the 50% cytotoxic concentration (CC50) at 48 h came to 50000 nM. Moreover, the values for the half-maximal effective concentration (EC50) in data set [3] (setting [5]) and in data set [4] were 260 nM and 3200 nM, respectively.

Take `CCCCCCCCCCCCCCCCCCOC[C@H](COP(=O)(O)OC[C@H]1O[C@@](C#N)(c2ccc3c(N)ncnn23)[C@H](OC(=O)C(C)C)[C@@H]1OC(=O)C(C)C)OCc1ccccc1` [Example 13, (2R,3R,4R,5R)-2-(4-aminopyrrolo[2,1-f][1,2,4]triazin-7-yl)-5-(((((R)-2-(benzyloxy)-3-(octadecyloxy)propoxy)(hydroxy)phosphoryl)oxy)methyl)-2-cyanotetrahydrofuran-3,4-diyl bis(2-methylpropanoate)]: in data set [1] (MT4 CC50, Table 1a), the cytotoxic concentration (CC50) came out at 32800 nM. In data set [2] (48 hours, Table 1), this molecule yielded a CC50 at 48 h of 15000 nM. Further, the EC50 in data set [3] (setting [5]) was 2200 nM; in data set [4] it was over 10000 nM.

`CCCCCCCCCCCCCCCCCCOC[C@H](COP(=O)(O)OC[C@H]1O[C@@](C#N)(c2ccc3c(N)ncnn23)[C@H](O)[C@@H]1O)OCc1ccc(F)c(F)c1` [Example 14, ((2R,3S,4R,5R)-5-(4-aminopyrrolo[2,1-f][1,2,4]triazin-7-yl)-5-cyano-3,4-dihydroxytetrahydrofuran-2-yl)methyl ((R)-2-((3,4-difluorobenzyl)oxy)-3-(octadecyloxy)propyl) hydrogen phosphate] yielded a CC50 in data set [1] (MT4 CC50, Table 1a) of 7190 nM. In data set [2] (48 hours, Table 1), this molecule displayed a CC50 at 48 h of 13000 nM. Also, the 50% effective concentration (EC50) in data set [3] (setting [5]) amounted to 90 nM; in data set [4] it was 320 nM.

Molecule `CCCCCCCCCCCCCCCCCCOC[C@@H](COP(=O)(O)OC[C@H]1O[C@@](C#N)(c2ccc3c(N)ncnn23)[C@H](O)[C@@H]1O)OCc1ccccc1` [Example 18, ((2R,3S,4R,5R)-5-(4-aminopyrrolo[2,1-f][1,2,4]triazin-7-yl)-5-cyano-3,4-dihydroxytetrahydrofuran-2-yl)methyl ((S)-2-(benzyloxy)-3-(octadecyloxy)propyl) hydrogen phosphate] had a 50% cytotoxic concentration (CC50) at 48 h in data set [2] (48 hours, Table 1) of over 50000 nM. Also, the EC50 in data set [3] (setting [5]) was found to be 110 nM; in data set [4] it was 320 nM.

As to `CCCCCCCCCCCCCCCCCCCOC[C@H](COP(=O)(O)OC[C@H]1O[C@@](C#N)(c2ccc3c(N)ncnn23)[C@H](O)[C@@H]1O)OCc1cc(F)cc(C#N)c1` [Example 70, ((2R,3S,4R,5R)-5-(4-aminopyrrolo[2,1-f][1,2,4]triazin-7-yl)-5-cyano-3,4-dihydroxytetrahydrofuran-2-yl)methyl ((R)-2-((3-cyano-5-fluorobenzyl)oxy)-3-(nonadecyloxy)propyl) hydrogen phosphate], the CC50 in data set [1] (MT4 CC50, Table 2a) worked out at 854 nM. The same molecule displayed a half-maximal cytotoxic concentration (CC50) at 48 h in data set [2] (Table 3) of 1100 nM. The EC50 amounted to 60 nM in data set [3] (72 h, read-out: RSV-Fluc EC50 (NHBE), NHBE cells, three days, Table 2) and 66 nM in data set [3] (read-out: RSV EC50, Table 2a).
